Biological target: P. falciparum apicoplast DNA polymerase (Pf-apPOL) (Plasmodium falciparum, UniProt Q8ILY1)
Assay: Fluorescence-based high-throughput DNA polymerase assay (molecular beacon), primary screen and dose-response
Assay type: biochemical
Details: for DNA Pol: 90 min, 10 µM; for % inhibition apPOL 180' 2.5 / % inhibition apPOL 180' 5 / % inhibition apPOL 180' 10 / % inhibition apPOL 180' 20 / % inhibition apPOL 180' 40 / % inhibition apPOL 180' 80: read at 180'
Method in brief: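 Single-point screening used 10 µM compound with 20 nM polymerase, 20 nM hairpin substrate and 6 µM dNTPs for 90 min at 25 °C. Confirmatory titrations (2.5–80 µM) followed fluorescence at three times, and IC50 was derived from a fit including a cooperativity term n.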

[1] = first dose-response, concentration 10
[2] = first dose-response, concentration 20

Sequence of P. falciparum apicoplast DNA polymerase (Pf-apPOL) (Q8ILY1 entry or part of it): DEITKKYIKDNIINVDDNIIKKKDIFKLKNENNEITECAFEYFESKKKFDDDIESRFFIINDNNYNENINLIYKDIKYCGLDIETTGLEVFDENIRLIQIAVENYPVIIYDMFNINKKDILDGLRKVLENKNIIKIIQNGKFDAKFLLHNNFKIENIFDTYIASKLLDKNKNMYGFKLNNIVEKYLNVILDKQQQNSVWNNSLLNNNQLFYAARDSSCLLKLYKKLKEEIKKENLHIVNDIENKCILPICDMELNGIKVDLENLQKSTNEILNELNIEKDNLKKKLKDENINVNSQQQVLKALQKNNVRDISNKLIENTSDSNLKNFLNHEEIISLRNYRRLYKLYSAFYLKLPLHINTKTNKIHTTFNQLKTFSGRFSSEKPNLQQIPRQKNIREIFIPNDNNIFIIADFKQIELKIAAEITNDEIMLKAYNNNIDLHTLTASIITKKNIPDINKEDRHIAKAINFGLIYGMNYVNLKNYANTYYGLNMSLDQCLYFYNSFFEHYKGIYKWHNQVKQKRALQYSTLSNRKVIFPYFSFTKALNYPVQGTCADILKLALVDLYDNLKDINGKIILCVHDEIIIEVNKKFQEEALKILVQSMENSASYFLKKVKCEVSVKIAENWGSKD

## Cc1ccc(NC(=O)Cn2ccc3c(=O)[nH]ccc32)cc1F [Molecule 48, O=C(Cn1ccc2c1cc[nH]c2=O)Nc1ccc(c(c1)F)C]
"DNA Pol" of the 186 hits list (screen value)
  DNA Pol: 27
DRC-1, concentration 2.5
  % inhibition Apo pol 10': 0.4313%
  % inhibition Apol 90': -2.985%
  % inhibition apPOL 180': -5.068%
DRC-1, concentration 5
  % inhibition Apo pol 10': 4.695%
  % inhibition Apol 90': -1.632%
  % inhibition apPOL 180': -4.79%
DRC-1, concentration 10
  % inhibition Apo pol 10': 32.4815%
  % inhibition Apol 90': 21.1063%
  % inhibition apPOL 180': 10.5149%
DRC-1, concentration 20
  % inhibition Apo pol 10': 59.9779%
  % inhibition Apol 90': 47.267%
  % inhibition apPOL 180': 31.5724%
DRC-1, concentration 40
  % inhibition Apo pol 10': 70.0783%
  % inhibition Apol 90': 60.3661%
  % inhibition apPOL 180': 45.3289%
DRC-1, concentration 80
  % inhibition Apo pol 10': 79.5186%
  % inhibition Apol 90': 79.6602%
  % inhibition apPOL 180': 73.7679%
DRC-2, concentration 2.5
  % inhibition Apo pol 5': -5.29%
  % inhibition Apol 40': -4.56%
  % inhibition ApPOL 90': -6.53%
  % inhibition apPOL 180': -10%
DRC-2, concentration 5
  % inhibition Apo pol 5': 3%
  % inhibition Apol 40': 4%
  % inhibition ApPOL 90': 2.25%
  % inhibition apPOL 180': -4%
DRC-2, concentration 10
  % inhibition Apo pol 5': 22%
  % inhibition Apol 40': 23%
  % inhibition ApPOL 90': 21%
  % inhibition apPOL 180': 7%
DRC-2, concentration 20
  % inhibition Apo pol 5': 44%
  % inhibition Apol 40': 57%
  % inhibition ApPOL 90': 56%
  % inhibition apPOL 180': 49%
DRC-2, concentration 40
  % inhibition Apo pol 5': 46%
  % inhibition Apol 40': 65%
  % inhibition ApPOL 90': 67%
  % inhibition apPOL 180': 65%
DRC-2, concentration 80
  % inhibition Apo pol 5': 38%
  % inhibition Apol 40': 62%
  % inhibition ApPOL 90': 67%
  % inhibition apPOL 180': 69%
Primary screen value, DNA Pol
  DNA Pol: 27

## COc1ccccc1CC(=O)N1CCc2c(nc3cc(-c4ccccc4Cl)[nH]n3c2=O)C1 [Molecule 49, COc1ccccc1CC(=O)N1CCc2c(C1)nc1n(c2=O)[nH]c(c1)c1ccccc1Cl]
186 hits, DNA Pol (screen value), unit not given
  DNA Pol: 46
'DNA Pol' (screen value), unit not given
  DNA Pol: 46
DRC-1, read at 10', concentration 2.5
  % inhibition Apo pol 10' 2.5: 7.56%
DRC-1, read at 10', concentration 5
  % inhibition Apo pol 10' 5: 17%
DRC-1, read at 10', concentration 10
  % inhibition Apo pol 10' 10: 40%
DRC-1, read at 10', concentration 20
  % inhibition Apo pol 10' 20: 65%
DRC-1, read at 10', concentration 40
  % inhibition Apo pol 10' 40: 80%
DRC-1, read at 10', concentration 80
  % inhibition Apo pol 10' 80: 74%
DRC-1, read at 90', concentration 2.5
  % inhibition Apol 90' 2.5: -3.41%
DRC-1, read at 90', concentration 5
  % inhibition Apol 90' 5: 2.19%
DRC-1, read at 90', concentration 10
  % inhibition Apol 90' 10: 20%
DRC-1, read at 90', concentration 20
  % inhibition Apol 90' 20: 40%
DRC-1, read at 90', concentration 40
  % inhibition Apol 90' 40: 68%
DRC-1, read at 90', concentration 80
  % inhibition Apol 90' 80: 71%
DRC-1, concentration 2.5
  % inhibition apPOL 180' 2.5: -9%
DRC-1, concentration 5
  % inhibition apPOL 180' 5: -5.67%
DRC-1, concentration 10
  % inhibition apPOL 180' 10: 8%
DRC-1, concentration 20
  % inhibition apPOL 180' 20: 20%
DRC-1, concentration 40
  % inhibition apPOL 180' 40: 52%
DRC-1, concentration 80
  % inhibition apPOL 180' 80: 59%
DRC-2, concentration 40
  % inhibition Apo pol 5': 56%
  % inhibition apPOL 180': 56%
  % inhibition apPOL 180' 40: 56%
DRC-2, concentration 5
  % inhibition Apol 40': 20%
  % inhibition apPOL 180' 5: 12%
DRC-2, concentration 10
  % inhibition Apol 40': 44%
  % inhibition apPOL 180' 10: 34%
DRC-2, concentration 20
  % inhibition Apol 40': 56%
  % inhibition apPOL 180': 44%
  % inhibition apPOL 180' 20: 44%
DRC-2, concentration 80
  % inhibition apPOL 180': 52%
  % inhibition apPOL 180' 80: 52%
DRC-2, read at 5', concentration 2.5
  % inhibition Apo pol 5' 2.5: 3.77%
DRC-2, read at 5', concentration 5
  % inhibition Apo pol 5' 5: 16%
DRC-2, read at 5', concentration 10
  % inhibition Apo pol 5' 10: 38%
DRC-2, read at 5', concentration 20
  % inhibition Apo pol 5' 20: 49%
DRC-2, read at 5', concentration 40
  % inhibition Apo pol 5' 40: 56%
DRC-2, read at 5', concentration 80
  % inhibition Apo pol 5' 80: 41%
DRC-2, read at 40', concentration 2.5
  % inhibition Apol 40' 2.5: 3.38%
DRC-2, read at 40', concentration 5
  % inhibition Apol 40' 5: 20%
DRC-2, read at 40', concentration 10
  % inhibition Apol 40' 10: 44%
DRC-2, read at 40', concentration 20
  % inhibition Apol 40' 20: 56%
DRC-2, read at 40', concentration 40
  % inhibition Apol 40' 40: 64%
DRC-2, read at 40', concentration 80
  % inhibition Apol 40' 80: 57%
DRC-2, read at 90', concentration 2.5
  % inhibition ApPOL 90' 2.5: 3.2%
DRC-2, read at 90', concentration 5
  % inhibition ApPOL 90' 5: 18%
DRC-2, read at 90', concentration 10
  % inhibition ApPOL 90' 10: 43%
DRC-2, read at 90', concentration 20
  % inhibition ApPOL 90' 20: 54%
DRC-2, read at 90', concentration 40
  % inhibition ApPOL 90' 40: 63%
DRC-2, read at 90', concentration 80
  % inhibition ApPOL 90' 80: 58%
DRC-2, concentration 2.5
  % inhibition apPOL 180' 2.5: -1%
[1]
  % inhibition Apo pol 10': 40%
  % inhibition Apol 90': 20%
[2]
  % inhibition Apol 90': 40%
  % inhibition apPOL 180': 20%
First dose-response, concentration 40
  % inhibition apPOL 180': 52%

## COc1cccc(Oc2c(C(F)(F)F)oc3cc(OC(=O)N(C)C)ccc3c2=O)c1 [Molecule 52, COc1cccc(c1)Oc1c(=O)c2ccc(cc2oc1C(F)(F)F)OC(=O)N(C)C]
'DNA Pol' of the 186 hits list (primary screen value)
  DNA Pol: 61
DNA Pol (primary screen value)
  DNA Pol: 61
DRC-1, concentration 2.5
  % inhibition Apo pol 10': 6.553%
  % inhibition Apol 90': 11.9844%
  % inhibition apPOL 180': 22.4742%
DRC-1, concentration 5
  % inhibition Apo pol 10': 12.9509%
  % inhibition Apol 90': 19.0717%
  % inhibition apPOL 180': 28.9407%
DRC-1, concentration 10
  % inhibition Apo pol 10': 26.9326%
  % inhibition Apol 90': 34.8904%
  % inhibition apPOL 180': 43.333%
DRC-1, concentration 20
  % inhibition Apo pol 10': 35.5271%
  % inhibition Apol 90': 41.7615%
  % inhibition apPOL 180': 44.974%
DRC-1, concentration 40
  % inhibition Apo pol 10': 51.7019%
  % inhibition Apol 90': 58.6612%
  % inhibition apPOL 180': 65.9617%
DRC-1, concentration 80
  % inhibition Apo pol 10': 57.2765%
  % inhibition Apol 90': 63.3235%
  % inhibition apPOL 180': 64.6101%
DRC-2, concentration 2.5
  % inhibition Apo pol 5': 15%
  % inhibition Apol 40': 14%
  % inhibition ApPOL 90': 14%
  % inhibition apPOL 180': 6.57%
DRC-2, concentration 5
  % inhibition Apo pol 5': 18%
  % inhibition Apol 40': 14%
  % inhibition ApPOL 90': 8%
  % inhibition apPOL 180': -58%
DRC-2, concentration 10
  % inhibition Apo pol 5': 27%
  % inhibition Apol 40': 33%
  % inhibition ApPOL 90': 33%
  % inhibition apPOL 180': 24%
DRC-2, concentration 20
  % inhibition Apo pol 5': 32%
  % inhibition Apol 40': 41%
  % inhibition ApPOL 90': 41%
  % inhibition apPOL 180': 33%
DRC-2, concentration 40
  % inhibition Apo pol 5': 40%
  % inhibition Apol 40': 50%
  % inhibition ApPOL 90': 51%
  % inhibition apPOL 180': 45%
DRC-2, concentration 80
  % inhibition Apo pol 5': 42%
  % inhibition Apol 40': 56%
  % inhibition ApPOL 90': 58%
  % inhibition apPOL 180': 54%

From paper PMC9090415, “Discovery of small molecule inhibitors of Plasmodium falciparum apicoplast DNA polymerase” (Journal of Enzyme Inhibition and Medicinal Chemistry, 2022)
